Test results from patent publication US20250230147A1, “LACTAMS AS CBL-B INHIBITORS” (Genentech, Inc., priority 2021, published 2025).
Structures can show the parent of a compound that is named as a salt.

Columns and labels:
c-Cbl = c-Cbl (Homo sapiens (Human), UniProt P22681); assay: C-Cbl LCK Ub TR-FRET assay (c-cbl Lck HTRF); type: biochemical; conditions: for (fold-selectivity): C-cbl Lck HTRF IC50 relative to Cbl-b Lck HTRF IC50
How it was run: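 After the ubiquitination reaction, detection mixture was added and plates incubated 20 min at room temperature before reading. IC50 values were calculated with wells lacking LCK as the low control and DMSO as the high control.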

Cbl-b = Cbl-b (Homo sapiens (Human), UniProt Q13191); assay: Cbl-b LCK Ub TR-FRET assay (Cbl-b Lck HTRF); type: biochemical
How it was run: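 TR-FRET (340 nm excitation, 615/665 nm emission) read after adding HA-ubiquitin–UBE2D2 thioester, anti-HA-D2 and streptavidin-Eu. Beforehand, compounds incubated 60 min with biotinylated Cbl-b, then 90 min with His-LCK and ATP (1 mM in 2× mix); IC50 from 10 concentrations, DMSO high and no-LCK low controls.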

Sequence of c-Cbl (P22681 47-435): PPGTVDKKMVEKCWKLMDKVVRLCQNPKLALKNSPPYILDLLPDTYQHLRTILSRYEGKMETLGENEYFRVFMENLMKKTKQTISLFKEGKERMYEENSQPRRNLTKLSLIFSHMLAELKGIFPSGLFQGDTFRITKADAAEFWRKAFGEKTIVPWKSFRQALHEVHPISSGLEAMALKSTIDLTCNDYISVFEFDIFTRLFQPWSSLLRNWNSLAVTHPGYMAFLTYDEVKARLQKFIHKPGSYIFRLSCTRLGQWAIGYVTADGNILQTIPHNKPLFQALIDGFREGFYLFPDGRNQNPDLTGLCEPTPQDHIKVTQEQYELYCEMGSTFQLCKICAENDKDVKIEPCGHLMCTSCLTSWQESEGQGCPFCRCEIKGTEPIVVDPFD
Sequence of Cbl-b (Q13191 40-426): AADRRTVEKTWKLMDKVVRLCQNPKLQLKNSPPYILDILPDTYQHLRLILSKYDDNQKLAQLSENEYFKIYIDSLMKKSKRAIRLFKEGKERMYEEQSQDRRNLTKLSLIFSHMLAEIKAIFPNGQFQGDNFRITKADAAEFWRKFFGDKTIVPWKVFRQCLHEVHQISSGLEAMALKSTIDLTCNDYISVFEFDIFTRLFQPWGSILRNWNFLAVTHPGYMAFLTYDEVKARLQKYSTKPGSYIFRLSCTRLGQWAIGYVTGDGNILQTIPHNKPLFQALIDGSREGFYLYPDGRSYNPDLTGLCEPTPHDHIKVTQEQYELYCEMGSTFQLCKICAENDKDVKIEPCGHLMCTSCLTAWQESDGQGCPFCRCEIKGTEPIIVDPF

Structure (SMILES)	IC50 (c-Cbl)	(fold-selectivity) (c-Cbl)	IC50 (Cbl-b)
C[C@H](c1cc2c(c(C(F)(F)F)c1)CN(c1cccc(C3([C@H](F)c4nncn4C)COC3)c1)C2=O)N1CC(C)(F)C1 [Compound 111, 2-(3-(3-((S)-fluoro(4-methyl-4H-1,2,4-triazol-3-yl)methyl)oxetan-3-yl)phenyl)-6-((R)-1-(3-fluoro-3-methylazetidin-1-yl)ethyl)-4-(trifluoromethyl)isoindolin-1-one]	340 nM	1.8x	190 nM
CC[C@H]1CN(C)CCN1Cc1cc2c(c(C(F)(F)F)c1)CN(c1cccc(C3(Cc4nncn4C)CC(F)(F)C3)c1)C2=O [Compound 434, (S)-2-(3-(3,3-difluoro-1-((4-methyl-4H-1,2,4-triazol-3-yl)methyl)cyclobutyl)phenyl)-6-((2-ethyl-4-methylpiperazin-1-yl)methyl)-4-(trifluoromethyl)isoindolin-1-one]	17 nM	(0.95x)	18 nM
Cn1cnnc1[C@@H](F)C1(c2cccc(N3Cc4c(cc(CN5CCC[C@H]5CO)cc4C(F)(F)F)C3=O)c2)COC1 [Compound 150, 2-(3-(3-((S)-fluoro(4-methyl-4H-1,2,4-triazol-3-yl)methyl)oxetan-3-yl)phenyl)-6-(((S)-2-(hydroxymethyl)pyrrolidin-1-yl)methyl)-4-(trifluoromethyl)isoindolin-1-one]	1500 nM	1.1x	1400 nM
Cn1cnnc1CC1(c2cccc(N3Cc4c(cc(CN5CCC[C@@](C)(O)C5)cc4C(F)(F)F)C3=O)c2)CC(F)(F)C1 [Compound 441, (R)-2-(3-(3,3-difluoro-1-((4-methyl-4H-1,2,4-triazol-3-yl)methyl)cyclobutyl)phenyl)-6-((3-hydroxy-3-methylpiperidin-1-yl)methyl)-4-(trifluoromethyl)isoindolin-1-one]	23 nM	(0.56x)	42 nM
CCSc1cc(C2(Cc3nncn3C)CCC2)cc(N2Cc3c(cc(CNC4(C)CCC4)cc3C(F)(F)F)C2=O)n1 [Compound 286, 2-(6-(ethylthio)-4-(1-((4-methyl-4H-1,2,4-triazol-3-yl)methyl)cyclobutyl)pyridin-2-yl)-6-(((1-methylcyclobutyl)amino)methyl)-4-(trifluoromethyl)isoindolin-1-one]	4.9 nM	(0.73x)	6.8 nM
CC(C)[C@H]1CN(C)CCN1Cc1cc2c(c(C(F)(F)F)c1)CN(c1cccc(C3([C@H](F)c4nc(F)cn4C)COC3)c1)C2=O [Compound 270, 2-(3-(3-((S)-fluoro(4-fluoro-1-methyl-1H-imidazol-2-yl)methyl)oxetan-3-yl)phenyl)-6-(((S)-2-isopropyl-4-methylpiperazin-1-yl)methyl)-4-(trifluoromethyl)isoindolin-1-one]	350 nM	(2.6x)	130 nM
CC(C)[C@H]1CN(Cc2cc3c(c(C(F)(F)F)c2)CN(c2cccc(C4(Cc5nncn5C)CC(F)(F)C4)c2)C3=O)CCN1 [Compound 429, (S)-2-(3-(3,3-difluoro-1-((4-methyl-4H-1,2,4-triazol-3-yl)methyl)cyclobutyl)phenyl)-6-((3-isopropylpiperazin-1-yl)methyl)-4-(trifluoromethyl)isoindolin-1-one]	20 nM	(0.76x)	26 nM
COC[C@H]1CCCN1Cc1cc2c(c(C(F)(F)F)c1)CN(c1cccc(C3([C@@H](F)c4nncn4C)COC3)c1)C2=O [Compound 155, 2-(3-(3-((R)-fluoro(4-methyl-4H-1,2,4-triazol-3-yl)methyl)oxetan-3-yl)phenyl)-6-(((R)-2-(methoxymethyl)pyrrolidin-1-yl)methyl)-4-(trifluoromethyl)isoindolin-1-one]	240 nM	1.8x	130 nM
Cn1cnnc1[C@H](F)C1(c2cccc(N3Cc4c(cccc4C(F)F)C3=O)c2)COC1 [Compound 59, (R)-4-(difluoromethyl)-2-(3-(3-(fluoro(4-methyl-4H-1,2,4-triazol-3-yl)methyl)oxetan-3-yl)phenyl)isoindolin-1-one]	1300 nM	2.1x	590 nM
C[C@H](N)c1cc2c(c(C(F)(F)F)c1)CN(c1cccc(C3(Cc4nncn4C)CC(F)(F)C3)c1)C2=O [Compound 384, (S)-6-(1-aminoethyl)-2-(3-(3,3-difluoro-1-((4-methyl-4H-1,2,4-triazol-3-yl)methyl)cyclobutyl)phenyl)-4-(trifluoromethyl)isoindolin-1-one]	25 nM	(1.1x)	22 nM
Cn1cnnc1CC1(c2cc(NCCCN3CCOCC3)nc(N3Cc4c(cc(CNC5(C)CCC5)cc4C(F)(F)F)C3=O)c2)CCC1 [Compound 303, 2-(4-(1-((4-methyl-4H-1,2,4-triazol-3-yl)methyl)cyclobutyl)-6-((3-morpholinopropyl)amino)pyridin-2-yl)-6-(((1-methylcyclobutyl)amino)methyl)-4-(trifluoromethyl)isoindolin-1-one]	190 nM	(0.59x)	310 nM
Cn1cnnc1[C@H](F)C1(c2cccc(N3Cc4c(cc([C@H](N)C5CCC5)cc4C(F)(F)F)C3=O)c2)COC1 [Compound 392, 6-((R)-amino(cyclobutyl)methyl)-2-(3-(3-((R)-fluoro(4-methyl-4H-1,2,4-triazol-3-yl)methyl)oxetan-3-yl)phenyl)-4-(trifluoromethyl)isoindolin-1-one]	15 nM	(1.1x)	13 nM
Cn1cnnc1CC1(c2cc(NCC3CC3)nc(N3Cc4c(cc(CNC5(C)CCC5)cc4C(F)(F)F)C3=O)c2)CCC1 [Compound 238, 2-(6-((cyclopropylmethyl)amino)-4-(1-((4-methyl-4H-1,2,4-triazol-3-yl)methyl)cyclobutyl)pyridin-2-yl)-6-(((1-methylcyclobutyl)amino)methyl)-4-(trifluoromethyl)-isoindolin-1-one]	11 nM	(1.0x)	11 nM
Cc1cnnn1CC1(c2cccc(N3Cc4c(cc(CN5CCN(C)C[C@@H]5C(C)C)cc4C(F)(F)F)C3=O)c2)COC1 [Compound 222, (S)-6-((2-Isopropyl-4-methylpiperazin-1-yl)methyl)-2-(3-(3-((5-methyl-1H-1,2,3-triazol-1-yl)methyl)oxetan-3-yl)phenyl)-4-(trifluoromethyl)isoindolin-1-one]	26 nM	1.2x	22 nM
CC(C)[C@H]1CN(C)CCN1Cc1cc2c(c(C(F)(F)F)c1)CN(c1cc(C3(Cc4nncn4C)COC3)cc(NC3CCCC3)n1)C2=O [Compound 297, (S)-2-(6-(cyclopentylamino)-4-(3-((4-methyl-4H-1,2,4-triazol-3-yl)methyl)oxetan-3-yl)pyridin-2-yl)-6-((2-isopropyl-4-methylpiperazin-1-yl)methyl)-4-(trifluoromethyl)isoindolin-1-one formate]	8 nM	–	9.1 nM
Cn1cnnc1CC1(c2cccc(N3Cc4c(cc(CN5CCC6(CC6)C5)cc4C(F)(F)F)C3=O)c2)CC(F)(F)C1 [Compound 106, 6((5-azaspiro[2.4]heptan-5-yl)methyl)-2-(3-(3,3-difluoro-1-((4-methyl-4H-1,2,4-triazol-3-yl)methyl)cyclobutyl)phenyl)-4-(trifluoromethyl)isoindolin-1-one]	15 nM	0.81x	18 nM
Cn1cnnc1[C@H](F)C1(c2cccc(N3Cc4c(cc(CNCCCF)cc4C(F)(F)F)C3=O)c2)CC(F)(F)C1 [Compound 447, (R)-2-(3-(3,3-difluoro-1-(fluoro(4-methyl-4H-1,2,4-triazol-3-yl)methyl)cyclobutyl)phenyl)-6-(((3-fluoropropyl)amino)methyl)-4-(trifluoromethyl)isoindolin-1-one]	20 nM	(1.2x)	16 nM
CCOc1cc(C2(Cc3nncn3C)COC2)cc(N2Cc3c(cc(CNC4(C)CCC4)cc3C(F)(F)F)C2=O)n1 [Compound 304, 2-(6-ethoxy-4-(3-((4-methyl-4H-1,2,4-triazol-3-yl)methyl)oxetan-3-yl)pyridin-2-yl)-6-(((1-methylcyclobutyl)amino)methyl)-4-(trifluoromethyl)isoindolin-1-one]	7.9 nM	(0.73x)	11 nM
CCNCc1cc2c(c(C(F)(F)F)c1)CN(c1cccc(C3([C@@H](F)c4nncn4C)COC3)c1)C2=O [Compound 213, (R)-6-((ethylamino)methyl)-2-(3-(3-(fluoro(4-methyl-4H-1,2,4-triazol-3-yl)methyl)oxetan-3-yl)phenyl)-4-(trifluoromethyl)isoindolin-1-one]	61 nM	1.6x	38 nM
Cc1cnnn1CC1(c2cccc(N3Cc4c(cc(CNC5(C)CCC5)cc4C(F)(F)F)C3=O)c2)COC1 [Compound 243, 2-(3-(3-((5-methyl-1H-1,2,3-triazol-1-yl)methyl)oxetan-3-yl)-phenyl)-6-(((1-methylcyclobutyl)amino)methyl)-4-(trifluoromethyl)isoindolin-1-one]	47 nM	(1.6x)	29 nM
CCCNCc1cc2c(c(C(F)(F)F)c1)CN(c1cccc(C3([C@@H](F)c4nncn4C)CC(F)(F)C3)c1)C2=O [Compound 445, (R)-2-(3-(3,3-difluoro-1-(fluoro(4-methyl-4H-1,2,4-triazol-3-yl)methyl)cyclobutyl)phenyl)-6-((propylamino)methyl)-4-(trifluoromethyl)isoindolin-1-one]	33 nM	(1.3x)	26 nM
